Source: patent US11331327B2, “Antibacterial use of halogenated salicylanilides” (UNION therapeutics A/S, priority 2014, dated 2022)
Values after ≈ are worked out from the molar mass of the structure shown. Like-named read-outs stand apart in the source and are kept apart here.

System: S. aureus clinical isolates and S. aureus ATCC 29213
Experiment: MIC assay according to CLSI criteria, Example 2, S. aureus strains
Type: cell-based, Staphylococcus aureus
Details: Staphylococcus aureus, read-out: MIC
Method: Strains were conserved in Luria Bertani (LB) Broth (S. aureus) or Brain Heart Infusion (BHI) (S. pyogenes) supplemented with glycerol 15% (v/v) at −80° C., and reactivated by isolation on LB (S. aureus) or BHI (S. pyogenes) agar plates. Strains were cultivated in Mueller Hinton (MH) Broth-cation adjusted (S. aureus) or BHI (S. pyogenes). All strains were cultivated aerobically (microaerobically for S. pyogenes strains) at 37° C.
Bacterial cultures were stopped in their exponential growth phase and plates were inoculated with the approximate concentration of 5×10^5 cells per well. Plates were incubated at 37° C. for 18 hours (S. aureus) or 24 hours (S. pyogenes).

SMILES: O=C(Nc1ccc([N+](=O)[O-])cc1Cl)c1cc(Cl)ccc1O [Niclosamide, 5-chloro-N-(2-chloro-4-nitrophenyl)-2-hydroxybenz-amide]
- MIC (ATCC 29213 / MRSA, strain MRSA 12): 0.5 µg/mL (≈ 1.53 µM)
- MIC (ATCC 29213 / MRSA, strain MRSA 13): 0.25 µg/mL (≈ 0.764 µM)
- MIC (ATCC 29213 / MRSA, strain MRSA 14): 0.25 µg/mL (≈ 0.764 µM)
- MIC (ATCC 29213 / MRSA, strain MRSA 15): 0.25 µg/mL (≈ 0.764 µM)
- MIC (ATCC 29213 / MRSA, strain MRSA 16): 0.25 µg/mL (≈ 0.764 µM)
- MIC (ATCC 29213 / MRSA, strain MRSA 17): 0.25 µg/mL (≈ 0.764 µM)
- MIC (ATCC 29213 / MRSA, strain MRSA 18): 0.25 µg/mL (≈ 0.764 µM)
- MIC (ATCC 29213 / MRSA, strain MRSA 19): 0.25 µg/mL (≈ 0.764 µM)
- MIC (ATCC 29213 / MRSA, strain MRSA 20): 0.25 µg/mL (≈ 0.764 µM)
- MIC (ATCC 29213 / MRSA, strain MRSA 21): 0.25 µg/mL (≈ 0.764 µM)
- MIC (ATCC 29213 / MRSA, strain MRSA 22): 0.25 µg/mL (≈ 0.764 µM)
- MIC (ATCC 29213 / MRSA, strain MRSA 23): 0.25 µg/mL (≈ 0.764 µM)
- MIC (ATCC 29213 / MRSA, strain MRSA 24): 0.25 µg/mL (≈ 0.764 µM)
- MIC (ATCC 29213 / MRSA, strain MRSA 25): 0.25 µg/mL (≈ 0.764 µM)
- MIC (ATCC 29213 / MRSA, strain MRSA 26): 0.5 µg/mL (≈ 1.53 µM)
- MIC (ATCC 29213 / MRSA, strain MRSA 27): 0.5 µg/mL (≈ 1.53 µM)
- MIC (ATCC 29213 / MRSA, strain MRSA 27b): 0.25 µg/mL (≈ 0.764 µM)
- MIC (ATCC 29213 / MRSA, strain MRSA 28): 0.25 µg/mL (≈ 0.764 µM)
- MIC (ATCC 29213 / MRSA, strain MRSA 29): 0.5 µg/mL (≈ 1.53 µM)
- MIC (ATCC 29213 / MRSA, strain MRSA 30): 0.25 µg/mL (≈ 0.764 µM)
- MIC (ATCC 29213 / MRSA, strain MRSA 31): 0.25 µg/mL (≈ 0.764 µM)
- MIC (ATCC 29213 / MRSA, strain MRSA 32): 0.25 µg/mL (≈ 0.764 µM)
- MIC (ATCC 29213 / MRSA, strain MRSA 33): 0.25 µg/mL (≈ 0.764 µM)
- MIC (ATCC 29213 / MRSA, strain MRSA 34): 0.25 µg/mL (≈ 0.764 µM)
- MIC (ATCC 29213 / MRSA, strain MRSA 35): 0.25 µg/mL (≈ 0.764 µM)
- MIC (ATCC 29213 / MRSA, strain MRSA 36): 0.25 µg/mL (≈ 0.764 µM)
- MIC (ATCC 29213 / MRSA, strain MRSA 37): 0.25 µg/mL (≈ 0.764 µM)
- MIC (ATCC 29213 / MRSA, strain MRSA 38): 0.25 µg/mL (≈ 0.764 µM)
- MIC (ATCC 29213 / MRSA, strain MRSA 39): 0.25 µg/mL (≈ 0.764 µM)
- MIC (ATCC 29213 / MRSA, strain MRSA 40): 0.25 µg/mL (≈ 0.764 µM)
- MIC (ATCC 29213 / MRSA, strain MRSA 41): 0.25 µg/mL (≈ 0.764 µM)
- MIC (ATCC 29213 / MRSA, strain MRSA 42): 0.25 µg/mL (≈ 0.764 µM)
- MIC (ATCC 29213 / MRSA, strain MRSA 43): 0.25 µg/mL (≈ 0.764 µM)
- MIC (ATCC 29213 / MRSA, strain MRSA 44): 0.25 µg/mL (≈ 0.764 µM)
- MIC (ATCC 29213 / MRSA, strain MRSA 45): 0.25 µg/mL (≈ 0.764 µM)
- MIC (ATCC 29213 / MRSA, strain MRSA 46): 0.25 µg/mL (≈ 0.764 µM)
- MIC (ATCC 29213 / MRSA, strain MRSA 47): 0.25 µg/mL (≈ 0.764 µM)
- MIC (ATCC 29213 / MRSA, strain MRSA 48): 0.25 µg/mL (≈ 0.764 µM)
- MIC (ATCC 29213 / MRSA, strain MRSA 49): 0.25 µg/mL (≈ 0.764 µM)
- MIC (ATCC 29213 / MRSA, strain MRSA 50): 0.25 µg/mL (≈ 0.764 µM)
- MIC (ATCC 29213 / MRSA, strain MRSA 51): 0.125 µg/mL (≈ 0.382 µM)
- MIC (ATCC 29213 / MRSA, strain MRSA 52): 0.25 µg/mL (≈ 0.764 µM)
- MIC (ATCC 29213 / MRSA, strain MRSA 53): 0.25 µg/mL (≈ 0.764 µM)
- MIC (ATCC 29213 / MRSA, strain MRSA 54): 0.25 µg/mL (≈ 0.764 µM)
- MIC (ATCC 29213 / MRSA, strain MRSA 55): 0.25 µg/mL (≈ 0.764 µM)
- MIC (ATCC 29213 / MRSA, strain MRSA 56): 0.25 µg/mL (≈ 0.764 µM)
- MIC (ATCC 29213 / MRSA, strain MRSA 57): 0.25 µg/mL (≈ 0.764 µM)
- MIC (ATCC 29213 / MRSA, strain MRSA 58): 0.25 µg/mL (≈ 0.764 µM)
- MIC (ATCC 29213 / MRSA, strain MRSA 59): 0.25 µg/mL (≈ 0.764 µM)
- MIC (ATCC 29213 / MRSA, strain MRSA 60): 0.25 µg/mL (≈ 0.764 µM)
- MIC (ATCC 29213 / MRSA, strain MRSA 61): 0.25 µg/mL (≈ 0.764 µM)
- MIC (ATCC 29213 / MRSA, strain MRSA 62): 0.25 µg/mL (≈ 0.764 µM)
- MIC (ATCC 29213 / MRSA, strain MRSA 63): 0.25 µg/mL (≈ 0.764 µM)
- MIC (ATCC 29213 / MRSA, strain MRSA 64): 0.25 µg/mL (≈ 0.764 µM)
- MIC (ATCC 29213 / MRSA, strain MRSA 65): 0.25 µg/mL (≈ 0.764 µM)
- MIC (ATCC 29213 / MRSA, strain MRSA 66): 0.25 µg/mL (≈ 0.764 µM)
- MIC (ATCC 29213 / MRSA, strain MRSA 67): 0.25 µg/mL (≈ 0.764 µM)
- MIC (ATCC 29213 / MRSA, strain MRSA 68): 0.25 µg/mL (≈ 0.764 µM)
- MIC (ATCC 29213 / MRSA, strain MRSA 69): 0.25 µg/mL (≈ 0.764 µM)
- MIC (ATCC 29213 / MRSA, strain MRSA 70): 0.125 µg/mL (≈ 0.382 µM)
- MIC (ATCC 29213 / MRSA, strain MRSA 71): 0.25 µg/mL (≈ 0.764 µM)
- MIC (ATCC 29213 / MRSA, strain MRSA 72): 0.25 µg/mL (≈ 0.764 µM)
- MIC (ATCC 29213 / MRSA, strain MRSA 73): 0.5 µg/mL (≈ 1.53 µM)
- MIC (ATCC 29213 / MRSA, strain MRSA 74): 0.25 µg/mL (≈ 0.764 µM)
- MIC (ATCC 29213 / MRSA, strain MRSA 75): 0.5 µg/mL (≈ 1.53 µM)
- MIC (ATCC 29213 / MRSA, strain MRSA 76): 0.25 µg/mL (≈ 0.764 µM)
- MIC (ATCC 29213 / MRSA, strain MRSA 77): 0.25 µg/mL (≈ 0.764 µM)
- MIC (ATCC 29213 / MRSA, strain MRSA 78): 0.5 µg/mL (≈ 1.53 µM)
- MIC (ATCC 29213 / MRSA, strain MRSA 79): 0.25 µg/mL (≈ 0.764 µM)
- MIC (ATCC 29213 / MRSA, strain MRSA 80): 0.5 µg/mL (≈ 1.53 µM)
- MIC (ATCC 29213 / MRSA, strain MRSA 81): 0.5 µg/mL (≈ 1.53 µM)
- MIC (ATCC 29213 / MRSA, strain MRSA 82): 0.25 µg/mL (≈ 0.764 µM)
- MIC (ATCC 29213 / MRSA, strain MRSA 83): 0.5 µg/mL (≈ 1.53 µM)
- MIC (ATCC 29213 / MRSA, strain MRSA 84): 0.25 µg/mL (≈ 0.764 µM)
- MIC (ATCC 29213 / MRSA, strain MRSA 85): 0.5 µg/mL (≈ 1.53 µM)
- MIC (ATCC 29213 / MRSA, strain MRSA 86): 0.25 µg/mL (≈ 0.764 µM)
- MIC (ATCC 29213 / MRSA, strain MRSA 87): 0.25 µg/mL (≈ 0.764 µM)
- MIC (ATCC 29213 / MRSA, strain MRSA 88): 0.25 µg/mL (≈ 0.764 µM)
- MIC (ATCC 29213 / MRSA, strain MRSA 89): 0.5 µg/mL (≈ 1.53 µM)
- MIC (ATCC 29213 / MRSA, strain MRSA 90): 0.5 µg/mL (≈ 1.53 µM)
- MIC (ATCC 29213 / MRSA, strain MRSA 91): 0.25 µg/mL (≈ 0.764 µM)
- MIC (ATCC 29213 / MRSA, strain MRSA 92): 0.25 µg/mL (≈ 0.764 µM)
- MIC (ATCC 29213 / MRSA, strain MRSA 93): 0.25 µg/mL (≈ 0.764 µM)
- MIC (ATCC 29213 / MRSA, strain MRSA 94): 0.25 µg/mL (≈ 0.764 µM)
- MIC (ATCC 29213 / MRSA, strain MRSA 95): 0.25 µg/mL (≈ 0.764 µM)
- MIC (ATCC 29213 / MRSA, strain MRSA 96): 0.25 µg/mL (≈ 0.764 µM)
- MIC (ATCC 29213 / MRSA, strain MRSA 97): 0.25 µg/mL (≈ 0.764 µM)
- MIC (ATCC 29213 / MRSA, strain MRSA 98): 0.5 µg/mL (≈ 1.53 µM)
- MIC (ATCC 29213 / MRSA, strain MRSA 99): 0.25 µg/mL (≈ 0.764 µM)
- MIC (ATCC 29213 / MRSA, strain MRSA 100): 0.25 µg/mL (≈ 0.764 µM)
- MIC (ATCC 29213 / MRSA, strain MRSA 101): 0.5 µg/mL (≈ 1.53 µM)
- MIC (ATCC 29213 / MRSA, strain MRSA 102): 0.25 µg/mL (≈ 0.764 µM)
- MIC (ATCC 29213 / MRSA, strain MRSA 103): 0.25 µg/mL (≈ 0.764 µM)
- MIC (ATCC 29213 / MRSA, strain MRSA 104): 0.5 µg/mL (≈ 1.53 µM)
- MIC (ATCC 29213 / MRSA, strain MRSA 105): 0.25 µg/mL (≈ 0.764 µM)
- MIC (ATCC 29213 / MRSA, strain MRSA 106): 0.25 µg/mL (≈ 0.764 µM)
- MIC (ATCC 29213 / MRSA, strain MRSA 107): 0.25 µg/mL (≈ 0.764 µM)
- MIC (ATCC 29213 / MRSA, strain MRSA 108): 0.25 µg/mL (≈ 0.764 µM)
- MIC (ATCC 29213 / MRSA, strain MRSA 109): 0.25 µg/mL (≈ 0.764 µM)
- MIC (ATCC 29213 / MRSA, strain MRSA 110): 0.25 µg/mL (≈ 0.764 µM)
- MIC (ATCC 29213 / MRSA, strain MRSA 111): 0.5 µg/mL (≈ 1.53 µM)
- MIC (ATCC 29213 / MRSA, strain MRSA 112): 0.25 µg/mL (≈ 0.764 µM)
- MIC (ATCC 29213 / MRSA, strain MRSA 113): 0.25 µg/mL (≈ 0.764 µM)
- MIC (ATCC 29213 / MSSA, strain MSSA 01): 0.5 µg/mL (≈ 1.53 µM)
- MIC (ATCC 29213 / MSSA, strain MSSA 02): 0.25 µg/mL (≈ 0.764 µM)
- MIC (ATCC 29213 / NEWMAN, strain Newman): 0.25 µg/mL (≈ 0.764 µM)
